# From patent US20240398768A1, “METHODS OF TREATING SOLID TUMOR USING HETEROAROMATIC MACROCYCLIC ETHER COMPOUNDS” (Nuvalent, Inc., priority 2021, published 2024)
# System: NIH3T3 cells expressing ROS1 fusions with G2032R
# Test: Anchorage-independent colony formation assay
# Assay type: cell-based
# Conditions: at 100 nM
# Protocol: Each inhibitor was paired with its own DMSO condition to serve as an accurate control. NIH3T3 cells expressing CD74-ROS1 or EZR-ROS1 wild-type or mutant fusions were plated in 0.4% agarose in complete medium at a density of 2,000 cells per 0.5 mL of agarose with DMSO or inhibitor at identical concentration to the bottom layer. Plates were incubated for 4 weeks, and each well was fed 3× per week with 75 μL of complete medium with or without inhibitor to match each plated condition to prevent drying of the agarose. Plates were read after 3 and 4 weeks using a GelCount™ (Oxford Optronix). Colony counts were averaged by condition and normalized to the colony counts from paired DMSO conditions. Data analysis and visualization was performed using Microsoft Excel and GraphPad Prism.
structure (smiles),measurement,value
"CN1CCN(c2ccc(C(=O)Nc3n[nH]c4ccc(Cc5cc(F)cc(F)c5)cc34)c(NC3CCOCC3)c2)CC1 [Entrectinib, reference compound]",inhibition of colony formation,weaker effects
